The source of these data is US20070128217A1 (priority 2003, published 2007).

For assay [1], the system named is control sera (pooled serum of ten healthy LUMC hospital workers; commercial negative donor pooled serum from the Dutch bloodbank). Type of assay: binding, human. Also on record: Binding of Control serum LUMC to linear peptides / Binding of Control serum Blood-bank to linear peptides / Binding of Control serum LUMC to looped peptides / Binding of Control Serum Blood-Bank to Looped peptides / Binding of Control serum LUMC to linear peptides of the protein M of SARS-CoV Urbani / Binding of Control serum Blood-bank to linear peptides of the protein M of SARS-CoV Urbani / Binding of Control serum LUMC to looped peptides of the protein M of SARS-CoV Urbani / Binding of Control Serum Blood-Bank to Looped peptides of the protein M of SARS-CoV Urbani: unit not given here.

The subject of assay [2] is rabbit serum obtained by immunizing a rabbit with the SARS-CoV strain Frankfurt 1. Type of assay: binding. Set-up: Binding of a rabbit serum to linear peptides / Binding of a rabbit serum to looped peptides / Rabbit serum linear peptides / Rabbit serum looped peptides / Binding of a rabbit serum to linear peptides of protein N of SARS-CoV Urbani (Rabbit serum linear peptides) / Binding of a rabbit serum to looped/cyclic peptides of protein N of SARS-CoV Urbani (Rabbit serum looped peptides): unit not given here.

For DYCIPYNSVTDTIVV, in assay [1], the “Binding of Control Serum Blood-Bank to Looped peptides” value was 0.7, the “Binding of Control serum Blood-bank to linear peptides” value is 0.7, the “Binding of Control serum LUMC to linear peptides” value was determined as 0.6 and the “Binding of Control serum LUMC to looped peptides” value is reported as 0.9. In assay [2], the “Binding of a rabbit serum to linear peptides” value was 0.1 and the “Binding of a rabbit serum to looped peptides” value is reported as 0.5.

Regarding ECVRGTTVLLKEPCP, in assay [1], the “Binding of Control Serum Blood-Bank to Looped peptides” value came out at 0.9, the “Binding of Control serum Blood-bank to linear peptides” value came to 0.9, the “Binding of Control serum LUMC to linear peptides” value amounted to 0.7 and the “Binding of Control serum LUMC to looped peptides” value is given as 0.8. In assay [2], the “Rabbit serum linear peptides” value stood at 0.6 and the “Rabbit serum looped peptides” value is given as 0.4.

Regarding EGHQTAAFRDVLVVL, in assay [1], the “Binding of Control Serum Blood-Bank to Looped peptides” value is reported as 0.9, the “Binding of Control serum Blood-bank to linear peptides” value turned out to be 0.7, the “Binding of Control serum LUMC to linear peptides” value was determined as 0.9 and the “Binding of Control serum LUMC to looped peptides” value is on record as 1.6. For the same sequence, in assay [2], the “Rabbit serum linear peptides” value turned out to be 0.3 and the “Rabbit serum looped peptides” value turned out to be 0.6.

Take EILIIIMRTFRIAIW: in assay [1], the “Binding of Control Serum Blood-Bank to Looped peptides of the protein X3 of SARS-CoV Urbani” value was 0.6, the “Binding of Control serum Blood-bank to linear peptides of the protein X3 of SARS-CoV Urbani” value worked out at 0.8, the “Binding of Control serum LUMC to linear peptides of the protein X3 of SARS-CoV Urbani” value turned out to be 0.5 and the “Binding of Control serum LUMC to looped peptides of the protein X3 of SARS-CoV Urbani” value worked out at 0.6. In assay [2], the “Rabbit serum linear peptides” value is on record as 0.5 and the “Rabbit serum looped peptides” value came out at 0.3.

For the sequence ELYHYQECVRGTTVL, in assay [1], the “Binding of Control Serum Blood-Bank to Looped peptides” value stood at 0.7, the “Binding of Control serum Blood-bank to linear peptides” value was 0.7, the “Binding of Control serum LUMC to linear peptides” value is 0.6 and the “Binding of Control serum LUMC to looped peptides” value is 0.7. In addition, in assay [2], the “Rabbit serum linear peptides” value worked out at 0.7 and the “Rabbit serum looped peptides” value is on record as 0.7.

As to FFIFNKLVKDPPNVQ, in assay [1], the “Binding of Control Serum Blood-Bank to Looped peptides” value was 0.5, the “Binding of Control serum Blood-bank to linear peptides” value is listed as 0.6, the “Binding of Control serum LUMC to linear peptides” value was 0.7 and the “Binding of Control serum LUMC to looped peptides” value stood at 0.6. Further, in assay [2], the “Binding of a rabbit serum to linear peptides” value amounted to 0.1 and the “Binding of a rabbit serum to looped peptides” value was 0.5.

With FIFNKLVKDPPNVQI, in assay [1], the “Binding of Control Serum Blood-Bank to Looped peptides” value stood at 0.8, the “Binding of Control serum Blood-bank to linear peptides” value amounted to 0.8, the “Binding of Control serum LUMC to linear peptides” value was 0.8 and the “Binding of Control serum LUMC to looped peptides” value turned out to be 0.7. Further, in assay [2], the “Binding of a rabbit serum to linear peptides” value is 0.1 and the “Binding of a rabbit serum to looped peptides” value worked out at 0.7.

For the sequence FKPLTKKNYSELDDE, in assay [1], the “Binding of Control Serum Blood-Bank to Looped peptides of the protein X3 of SARS-CoV Urbani” value amounted to 0.8, the “Binding of Control serum Blood-bank to linear peptides of the protein X3 of SARS-CoV Urbani” value turned out to be 0.8, the “Binding of Control serum LUMC to linear peptides of the protein X3 of SARS-CoV Urbani” value is on record as 0.8 and the “Binding of Control serum LUMC to looped peptides of the protein X3 of SARS-CoV Urbani” value is 0.8. For the same sequence, in assay [2], the “Rabbit serum linear peptides” value is recorded as 0.5 and the “Rabbit serum looped peptides” value is 0.5.

Consider FQHQNSKKTTKLVVI, for which, in assay [1], the “Binding of Control Serum Blood-Bank to Looped peptides” value is 0.4, the “Binding of Control serum Blood-bank to linear peptides” value is listed as 0.5, the “Binding of Control serum LUMC to linear peptides” value was determined as 0.7 and the “Binding of Control serum LUMC to looped peptides” value is recorded as 0.5. Further, the “Recognition of the peptide by the rabbit serum” value in assay [2] is “recognized”.

In the case of FTLGSITAQPVKIDN, in assay [1], the “Binding of Control Serum Blood-Bank to Looped peptides” value came out at 1.6, the “Binding of Control serum Blood-bank to linear peptides” value is given as 0.5, the “Binding of Control serum LUMC to linear peptides” value amounted to 0.6 and the “Binding of Control serum LUMC to looped peptides” value is reported as 1.2. Moreover, in assay [2], the “Binding of a rabbit serum to linear peptides” value was found to be 0.7 and the “Binding of a rabbit serum to looped peptides” value was determined as 0.8.

Consider FVCWHTHNYDYCIPY, for which, in assay [1], the “Binding of Control Serum Blood-Bank to Looped peptides” value amounted to 0.5, the “Binding of Control serum Blood-bank to linear peptides” value turned out to be 0.6, the “Binding of Control serum LUMC to linear peptides” value is listed as 0.7 and the “Binding of Control serum LUMC to looped peptides” value stood at 0.6. Moreover, in assay [2], the “Binding of a rabbit serum to linear peptides” value was determined as 0.1 and the “Binding of a rabbit serum to looped peptides” value is given as 0.7.

In the case of GASQRVGTDSGFAAY, in assay [1], the “Binding of Control Serum Blood-Bank to Looped peptides of the protein M of SARS-CoV Urbani” value was found to be 0.7, the “Binding of Control serum Blood-bank to linear peptides of the protein M of SARS-CoV Urbani” value was 0.9, the “Binding of Control serum LUMC to linear peptides of the protein M of SARS-CoV Urbani” value amounted to 0.9 and the “Binding of Control serum LUMC to looped peptides of the protein M of SARS-CoV Urbani” value is 0.7. Further, in assay [2], the “Rabbit serum linear peptides” value is recorded as 0.1 and the “Rabbit serum looped peptides” value was 0.1.

GGYSEDRHSGVKDYV: in assay [1], the “Binding of Control Serum Blood-Bank to Looped peptides” value came to 0.4, the “Binding of Control serum Blood-bank to linear peptides” value was determined as 0.6, the “Binding of Control serum LUMC to linear peptides” value stood at 0.4 and the “Binding of Control serum LUMC to looped peptides” value is reported as 0.5. Also, in assay [2], the “Binding of a rabbit serum to linear peptides” value was 0.1 and the “Binding of a rabbit serum to looped peptides” value is listed as 0.2.

For the sequence GHQTAAFRDVLVVLN, in assay [1], the “Binding of Control Serum Blood-Bank to Looped peptides” value is on record as 0.6, the “Binding of Control serum Blood-bank to linear peptides” value is given as 0.5, the “Binding of Control serum LUMC to linear peptides” value stood at 0.8 and the “Binding of Control serum LUMC to looped peptides” value came to 0.6. For the same sequence, in assay [2], the “Rabbit serum linear peptides” value stood at 0.1 and the “Rabbit serum looped peptides” value is reported as 0.5.

Regarding GIAIAMACIVGLMWL, in assay [1], the “Binding of Control Serum Blood-Bank to Looped peptides of the protein M of SARS-CoV Urbani” value is given as 0.7, the “Binding of Control serum Blood-bank to linear peptides of the protein M of SARS-CoV Urbani” value turned out to be 0.8, the “Binding of Control serum LUMC to linear peptides of the protein M of SARS-CoV Urbani” value was 0.5 and the “Binding of Control serum LUMC to looped peptides of the protein M of SARS-CoV Urbani” value is given as 0.8. Also, in assay [2], the “Rabbit serum linear peptides” value is 0.3 and the “Rabbit serum looped peptides” value was 0.1.

For GISTPKLKEDYQIGG, in assay [1], the “Binding of Control Serum Blood-Bank to Looped peptides” value was found to be 0.4, the “Binding of Control serum Blood-bank to linear peptides” value is recorded as 0.5, the “Binding of Control serum LUMC to linear peptides” value was 0.4 and the “Binding of Control serum LUMC to looped peptides” value is reported as 0.4. In addition, in assay [2], the “Binding of a rabbit serum to linear peptides” value stood at 0.1 and the “Binding of a rabbit serum to looped peptides” value was 0.3.

GNYKLNTDHAGSNDN: in assay [1], the “Binding of Control Serum Blood-Bank to Looped peptides of the protein M of SARS-CoV Urbani” value stood at 0.6, the “Binding of Control serum Blood-bank to linear peptides of the protein M of SARS-CoV Urbani” value was found to be 0.6, the “Binding of Control serum LUMC to linear peptides of the protein M of SARS-CoV Urbani” value came out at 0.7 and the “Binding of Control serum LUMC to looped peptides of the protein M of SARS-CoV Urbani” value came to 0.7. Also, in assay [2], the “Rabbit serum linear peptides” value stood at 0.0 and the “Rabbit serum looped peptides” value came to 0.2.

GSITAQPVKIDNASP: in assay [1], the “Binding of Control Serum Blood-Bank to Looped peptides” value came out at 0.6, the “Binding of Control serum Blood-bank to linear peptides” value is 0.6, the “Binding of Control serum LUMC to linear peptides” value is 0.6 and the “Binding of Control serum LUMC to looped peptides” value is on record as 0.5. In addition, in assay [2], the “Binding of a rabbit serum to linear peptides” value was 0.2 and the “Binding of a rabbit serum to looped peptides” value stood at 0.4.

In the case of GSSGVANPAMDPIYD, in assay [1], the “Binding of Control Serum Blood-Bank to Looped peptides” value is recorded as 0.4, the “Binding of Control serum Blood-bank to linear peptides” value is 0.6, the “Binding of Control serum LUMC to linear peptides” value is on record as 0.7 and the “Binding of Control serum LUMC to looped peptides” value is 0.4. In assay [2], the “Binding of a rabbit serum to linear peptides” value is 0.1 and the “Binding of a rabbit serum to looped peptides” value was found to be 0.5.

Turning to GTQVLKTMSLYMAIS, in assay [1], the “Binding of Control Serum Blood-Bank to Looped peptides” value came out at 0.7, the “Binding of Control serum Blood-bank to linear peptides” value was 0.6, the “Binding of Control serum LUMC to linear peptides” value came to 0.6 and the “Binding of Control serum LUMC to looped peptides” value turned out to be 0.6. Besides, in assay [2], the “Binding of a rabbit serum to linear peptides” value stood at 0.2 and the “Binding of a rabbit serum to looped peptides” value came out at 0.4.

GTTVLLKEPCPSGTY: in assay [1], the “Binding of Control Serum Blood-Bank to Looped peptides” value is 0.7, the “Binding of Control serum Blood-bank to linear peptides” value is given as 0.7, the “Binding of Control serum LUMC to linear peptides” value is 0.7 and the “Binding of Control serum LUMC to looped peptides” value is 0.8. In addition, in assay [2], the “Rabbit serum linear peptides” value was 0.4 and the “Rabbit serum looped peptides” value came to 0.4.

Turning to GTYEGNSPFHPLADN, in assay [1], the “Binding of Control Serum Blood-Bank to Looped peptides” value turned out to be 0.9, the “Binding of Control serum Blood-bank to linear peptides” value was found to be 0.7, the “Binding of Control serum LUMC to linear peptides” value was 0.8 and the “Binding of Control serum LUMC to looped peptides” value was 0.7. For the same sequence, in assay [2], the “Rabbit serum linear peptides” value amounted to 0.6 and the “Rabbit serum looped peptides” value is 0.5.

As for GVKDYVVVHGYFTEV, in assay [1], the “Binding of Control Serum Blood-Bank to Looped peptides” value was found to be 1.1, the “Binding of Control serum Blood-bank to linear peptides” value was 0.5, the “Binding of Control serum LUMC to linear peptides” value was determined as 0.7 and the “Binding of Control serum LUMC to looped peptides” value stood at 1.3. Moreover, in assay [2], the “Binding of a rabbit serum to linear peptides” value is 0.1 and the “Binding of a rabbit serum to looped peptides” value is on record as 0.7.

On to HNYDYCIPYNSVTDT, for which, in assay [1], the “Binding of Control Serum Blood-Bank to Looped peptides” value stood at 0.7, the “Binding of Control serum Blood-bank to linear peptides” value came out at 0.3, the “Binding of Control serum LUMC to linear peptides” value is listed as 0.4 and the “Binding of Control serum LUMC to looped peptides” value came out at 0.6. In addition, in assay [2], the “Binding of a rabbit serum to linear peptides” value is 0.1 and the “Binding of a rabbit serum to looped peptides” value was 0.5.

HPLADNKFALTCTST: in assay [1], the “Binding of Control Serum Blood-Bank to Looped peptides” value was 0.8, the “Binding of Control serum Blood-bank to linear peptides” value is on record as 0.7, the “Binding of Control serum LUMC to linear peptides” value stood at 0.6 and the “Binding of Control serum LUMC to looped peptides” value is 0.9. In addition, in assay [2], the “Rabbit serum linear peptides” value turned out to be 0.5 and the “Rabbit serum looped peptides” value was 0.1.
